From patent publication US9273058B2 (BRISTOL-MYERS SQUIBB COMPANY, priority 2013, dated 2016) come the findings set out here.

Molecules are shown by their SMILES.

For one assay, the target named is CK1δ (Homo sapiens, UniProt P48730). As to the kind of experiment: CK1δ kinase assay (Caliper LabChip electrophoretic separation of fluoresceinated peptide substrate and product). Format: biochemical. Conditions: 200 pM CK1δ, 50 μM ATP, 1.5 μM peptide, 22 hours at room temperature; read-out: CK1δ IC50 range. The method, boiled down: (§1)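 Reactions ran 22 hours at room temperature and were stopped with EDTA. Phosphorylated product and unphosphorylated substrate were then separated electrophoretically. Compounds were tested at eleven concentrations, and IC50 values came from non-linear regression.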

The target in another assay is CK1ε (Homo sapiens, UniProt P49674). The experiment in a line: CK1ε kinase assay (Caliper LabChip electrophoretic separation of fluoresceinated peptide substrate and product). Format: biochemical. The note with it: 200 pM CK1ε, 50 μM ATP, 1.5 μM peptide, 22 hours at room temperature; read-out: CK1ε IC50 range. The method, boiled down:
as §1

By IC50 is commonly meant the concentration that gives 50% inhibition.

Sequence of CK1ε (P49674 whole entry): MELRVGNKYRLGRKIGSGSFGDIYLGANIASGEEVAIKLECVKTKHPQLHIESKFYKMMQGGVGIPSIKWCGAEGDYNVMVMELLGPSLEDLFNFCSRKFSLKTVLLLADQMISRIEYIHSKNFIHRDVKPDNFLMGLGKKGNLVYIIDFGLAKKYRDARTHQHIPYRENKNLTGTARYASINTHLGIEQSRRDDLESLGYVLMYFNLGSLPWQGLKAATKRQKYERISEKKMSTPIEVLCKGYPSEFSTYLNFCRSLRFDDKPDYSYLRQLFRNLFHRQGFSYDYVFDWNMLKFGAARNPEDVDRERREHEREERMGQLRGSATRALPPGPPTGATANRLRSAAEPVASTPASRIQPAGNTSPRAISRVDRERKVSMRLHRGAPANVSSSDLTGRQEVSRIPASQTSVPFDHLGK
Sequence of CK1δ (P48730 whole entry): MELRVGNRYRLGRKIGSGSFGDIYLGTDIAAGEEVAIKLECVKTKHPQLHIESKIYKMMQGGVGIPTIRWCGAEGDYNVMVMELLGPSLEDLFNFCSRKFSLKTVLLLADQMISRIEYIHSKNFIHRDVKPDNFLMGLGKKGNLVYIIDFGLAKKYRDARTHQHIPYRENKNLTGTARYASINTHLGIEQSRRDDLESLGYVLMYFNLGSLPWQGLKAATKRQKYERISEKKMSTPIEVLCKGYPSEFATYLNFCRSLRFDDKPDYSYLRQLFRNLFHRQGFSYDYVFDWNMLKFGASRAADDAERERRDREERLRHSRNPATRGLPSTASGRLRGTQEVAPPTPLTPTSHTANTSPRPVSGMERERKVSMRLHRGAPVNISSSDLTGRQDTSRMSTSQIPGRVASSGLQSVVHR

For the compound `CC1Cn2nc(-c3ccc(F)c(Cl)c3)c(C(N)=O)c2CN1C(=O)NC(C)(C)C` (single isomer, unassigned) [Compound 340, N^5-(tert-Butyl)-2-(3-chloro-4-fluorophenyl)-6-methyl-6,7-dihydropyrazolo[1,5-a]pyrazine-3,5(4H)-dicarboxamide], the IC50 fell in the range of 0.01 to 10 nM on CK1δ and 10 to 100 nM on CK1ε.

For the compound `CC1Cn2nc(-c3ccc(F)c(Cl)c3)c(C(N)=O)c2CN1C(=O)NC(C)(C)C` (single isomer, unassigned) [Compound 341, N^5-(tert-Butyl)-2-(3-chloro-4-fluorophenyl)-6-methyl-6,7-dihydropyrazolo[1,5-a]pyrazine-3,5(4H)-dicarboxamide], the IC50 was 10 to 100 nM at CK1δ and 0.01 to 10 nM on CK1ε.

Turning to `CC1Cn2nc(-c3ccc(F)c(Cl)c3)c(C(N)=O)c2CN1C(=O)NC1CC(F)(F)C1` (single isomer, unassigned) [Compound 342, 2-(3-Chloro-4-fluorophenyl)-N^5-(3,3-difluorocyclobutyl)-6-methyl-6,7-dihydropyrazolo[1,5-a]pyrazine-3,5(4H)-dicarboxamide], the IC50 on CK1δ and on CK1ε was 10 to 100 nM in each case.

For `CC1Cn2nc(-c3ccc(F)c(Cl)c3)c(C(N)=O)c2CN1C(=O)NC1CC(F)(F)C1` (single isomer, unassigned) [Compound 343, 2-(3-Chloro-4-fluorophenyl)-N^5-(3,3-difluorocyclobutyl)-6-methyl-6,7-dihydropyrazolo[1,5-a]pyrazine-3,5(4H)-dicarboxamide], the concentration for half-maximal inhibition (IC50) on CK1δ and on CK1ε was 0.01 to 10 nM each time.

As to `CC1Cn2nc(-c3ccc(F)c(Cl)c3)c(C(N)=O)c2CN1C(=O)NC1(C)CC(F)(F)C1` (single isomer, unassigned) [Compound 344, 2-(3-Chloro-4-fluorophenyl)-N^5-(3,3-difluoro-1-methylcyclobutyl)-6-methyl-6,7-dihydropyrazolo[1,5-a]pyrazine-3,5(4H)-dicarboxamide], the IC50 at CK1δ and on CK1ε was 0.01 to 10 nM each time.

For the compound `CC1Cn2nc(-c3ccc(F)c(Cl)c3)c(C(N)=O)c2CN1C(=O)NC1(C)CC(F)(F)C1` (single isomer, unassigned) [Compound 345, 2-(3-Chloro-4-fluorophenyl)-N^5-(3,3-difluoro-1-methylcyclobutyl)-6-methyl-6,7-dihydropyrazolo[1,5-a]pyrazine-3,5(4H)-dicarboxamide], the IC50 on CK1δ and on CK1ε was 0.01 to 10 nM in each case.

`CC(C)(C)NC(=O)N1Cc2c(C(N)=O)c(-c3ccc(F)c(Cl)c3)nn2CC1C(F)(F)F` (single isomer, unassigned) [Compound 346, N^5-(tert-Butyl)-2-(3-chloro-4-fluorophenyl)-6-(trifluoromethyl)-6,7-dihydropyrazolo[1,5-a]pyrazine-3,5(4H)-dicarboxamide]: the IC50 on CK1δ and at CK1ε was 100 to 2000 nM in each case.

As for `CC(C)(C)NC(=O)N1Cc2c(C(N)=O)c(-c3ccc(F)c(Cl)c3)nn2CC1C(F)(F)F` (single isomer, unassigned) [Compound 347, N^5-(tert-Butyl)-2-(3-chloro-4-fluorophenyl)-6-(trifluoromethyl)-6,7-dihydropyrazolo[1,5-a]pyrazine-3,5(4H)-dicarboxamide], the half-maximal inhibitory concentration (IC50) on CK1δ was 10 to 100 nM; on CK1ε it was 0.01 to 10 nM.

As for `CC1(NC(=O)N2Cc3c(C(N)=O)c(-c4ccc(F)c(Cl)c4)nn3CC2C2CC2)CC(F)(F)C1` (single isomer, unassigned) [Compound 348, 2-(3-Chloro-4-fluorophenyl)-6-cyclopropyl-N^5-(3,3-difluoro-1-methylcyclobutyl)-6,7-dihydropyrazolo[1,5-a]pyrazine-3,5(4H)-dicarboxamide], the IC50 at CK1δ fell in the range of 100 to 2000 nM; on CK1ε it was 10 to 100 nM.
